In brackets after ≈: the same amount, converted by molar mass. Several values for one entry are separate records, joined by “and”; a condition that tells them apart may be missing. Equal values may be shown once. Values belong to the compound of their own block, whether it stands above or below them.
Legend:
Test in all cases: ≥ marks a high value that may be exact or a test limit, other limits are often not marked, values filed in µg/mL are converted to µM
Bacillus subtilis DELTA = test system: Bacillus subtilis DELTA
Candida parapsilosis = test system: Candida parapsilosis
[1] = test system: Escherichia coli DH5alpha
[2] = test system: Pseudomonas aeruginosa PAO1
[3] = test system: Zymomonas mobilis ATCC 10988
Bacillus megaterium Bm11 = test system: Bacillus megaterium Bm11
Candida albicans = test system: Candida albicans
Cryptococcus neoformans = test system: Cryptococcus neoformans
Enterococcus faecium = test system: Enterococcus faecium
[4] = test system: Escherichia coli ATCC 25922
Escherichia coli ML-35 = test system: Escherichia coli ML-35
[5] = test system: Escherichia coli O18:K1:H7 Bort
[6] = test system: Salmonella enterica subsp. enterica serovar Typhimurium ATCC 14028
[7] = test system: Serratia marcescens ATCC 8100
Serratia marcescens = test system: Serratia marcescens
[8] = test system: Staphylococcus aureus ATCC 25923
Staphylococcus aureus = test system: Staphylococcus aureus
[9] = test system: Staphylococcus epidermidis ATCC 12228
Streptococcus agalactiae = test system: Streptococcus agalactiae
Aureobasidium pullulans = test system: Aureobasidium pullulans
Bacillus megaterium = test system: Bacillus megaterium
[10] = test system: Bacillus subtilis ATCC 23857
[11] = test system: Candida albicans ATCC 10231
[12] = test system: Corynebacterium glutamicum ATCC 13032
Micrococcus luteus = test system: Micrococcus luteus
[13] = test system: Pseudomonas aeruginosa ATCC 27853
[14] = test system: Staphylococcus aureus ATCC 9144
Bacillus subtilis C971 = test system: Bacillus subtilis C971
[15] = test system: Corynebacterium xerosis C875
[16] = test system: Enterococcus faecalis C625
Escherichia coli DC2 = test system: Escherichia coli DC2
Escherichia coli UB1005 = test system: Escherichia coli UB1005
[17] = test system: Pseudomonas aeruginosa H187
[18] = test system: Pseudomonas aeruginosa H188
[19] = test system: Salmonella typhimurium C587
[20] = test system: Salmonella typhimurium C610
[21] = test system: Staphylococcus aureus SAP 0017
[22] = test system: Staphylococcus epidermidis C621
Aspergillus fumigatus = test system: Aspergillus fumigatus
Bibersteinia trehalosi = test system: Bibersteinia trehalosi
[23] = test system: Corynebacterium pseudotuberculosis ATCC 19410
Klebsiella pneumoniae = test system: Klebsiella pneumoniae
[24] = test system: Mannheimia haemolytica Serovar 1
[25] = test system: Mannheimia haemolytica Serovar 2
[26] = test system: Mannheimia haemolytica Serovar 6
Pasteurella multocida = test system: Pasteurella multocida
[27] = test system: Salmonella enterica subsp. arizonae
[28] = test system: Bacillus subtilis MTCC 2763
[29] = test system: Escherichia coli MTCC 723
[30] = test system: Pseudomonas aeruginosa MTCC 2295
[31] = test system: Staphylococcus aureus ATCC BAA-1720
[32] = test system: Staphylococcus aureus MTCC 3160
[33] = test system: Staphylococcus epidermidis ATCC 51625

Structure (SMILES): CC[C@H](C)[C@H](NC(=O)[C@H](CCCN=C(N)N)NC(=O)[C@H](CCC(N)=O)NC(=O)[C@@H](NC(=O)[C@@H](NC(=O)[C@H](CCCN=C(N)N)NC(=O)[C@H](CCCCN)NC(=O)[C@H](Cc1ccccc1)NC(C)=O)[C@@H](C)CC)C(C)C)C(=O)N[C@@H](CCCCN)C(=O)N[C@@H](CC(=O)O)C(=O)N[C@@H](CC(C)C)C(=O)N[C@@H](CC(C)C)C(=O)N[C@@H](CCCN=C(N)N)C(N)=O [FKRIVQRIKDLLR]
MIC (Bacillus subtilis DELTA): ≥ 119 µM | MIC (Candida parapsilosis): ≥ 119 µM | MIC [1]: ≥ 119 µM | MIC [2]: 23.7 µM (≈ 41 µg/mL) | MIC [3]: 23.7 µM (≈ 41 µg/mL)

Structure (SMILES): C[C@H](NC(=O)[C@H](CCCN=C(N)N)NC(=O)[C@H](Cc1c[nH]c2ccccc12)NC(=O)[C@H](Cc1c[nH]c2ccccc12)NC(=O)[C@H](Cc1c[nH]c2ccccc12)NC(=O)[C@@H]1CCCN1C(=O)[C@H](CCCN=C(N)N)NC(=O)[C@H](CCCN=C(N)N)NC(=O)CN)C(=O)N[C@@H](CCCN=C(N)N)C(N)=O [GRRPWWWRAR]
MIC (Aureobasidium pullulans): 21.9 µM (≈ 31.3 µg/mL) | MIC (Bacillus megaterium): 0.701 µM (≈ 0.999 µg/mL) | MIC [10]: 2.73 µM (≈ 3.9 µg/mL) | MIC [11]: 21.9 µM (≈ 31.3 µg/mL) | MIC [12]: 1.4 µM (≈ 2 µg/mL) | MIC [4]: 5.47 µM (≈ 7.79 µg/mL) | MIC (Micrococcus luteus): 2.73 µM (≈ 3.9 µg/mL) | MIC [13]: 21.9 µM (≈ 31.3 µg/mL) | MIC [14]: 5.47 µM (≈ 7.79 µg/mL)

Structure (SMILES): CC[C@H](C)[C@H](NC(=O)[C@H](Cc1cnc[nH]1)NC(=O)[C@@H](NC(=O)[C@@H](NC(=O)[C@H](CCCCN)NC(=O)[C@H](CCCN=C(N)N)NC(=O)[C@@H](NC(=O)[C@@H](NC(=O)[C@H](CCCN=C(N)N)NC(=O)[C@H](CCCN=C(N)N)NC(=O)[C@@H](N)CC(C)C)[C@@H](C)CC)[C@@H](C)CC)[C@@H](C)CC)[C@@H](C)CC)C(=O)N[C@H](C(=O)N[C@@H](CCCCN)C(N)=O)[C@@H](C)CC [LRRIIRKIIHIIK]
MIC (Aspergillus fumigatus): 4.96 µM (≈ 8.3 µg/mL) | MIC (Bibersteinia trehalosi): 2.99 µM (≈ 5 µg/mL) | MIC [23]: 12 µM (≈ 20 µg/mL) | MIC (Klebsiella pneumoniae): 4.01 µM (≈ 6.7 µg/mL) | MIC [24]: 1.97 µM (≈ 3.3 µg/mL) | MIC [25]: 1.02 µM (≈ 1.7 µg/mL) | MIC [26]: 2.51 µM (≈ 4.2 µg/mL) | MIC (Pasteurella multocida): 2.99 µM (≈ 5 µg/mL) | MIC [2]: 1.02 µM (≈ 1.7 µg/mL) | MIC [27]: 12 µM (≈ 20 µg/mL) | MIC (Staphylococcus aureus): 5.98 µM (≈ 9.99 µg/mL)

Structure (SMILES): NC(=O)[C@H](CCCN=C(N)N)NC(=O)[C@H](Cc1c[nH]c2ccccc12)NC(=O)[C@H](Cc1c[nH]c2ccccc12)NC(=O)[C@H](CCCN=C(N)N)NC(=O)[C@@H](N)Cc1c[nH]c2ccccc12 [WRWWR]
MIC [28]: ≥ 56.2 µM | MIC [29]: ≥ 45 µM | MIC [30]: ≥ 78.7 µM | MIC [31]: 19.7 µM (≈ 17.5 µg/mL) | MIC [32]: 16.9 µM (≈ 15 µg/mL) | MIC [33]: 22.5 µM (≈ 20 µg/mL)

Second part, the compound after the results:

MIC (Bacillus megaterium Bm11): 2 µM (≈ 6.02 µg/mL) | MIC (Candida albicans): 8 µM (≈ 24.1 µg/mL) | MIC (Cryptococcus neoformans): 4 µM (≈ 12 µg/mL) | MIC (Enterococcus faecium): 22.6 µM (≈ 68.1 µg/mL) | MIC [4]: 1 µM (≈ 3.01 µg/mL) | MIC (Escherichia coli ML-35): 0.5 µM (≈ 1.5 µg/mL) | MIC [5]: 2 µM (≈ 6.02 µg/mL) | MIC [6]: 1 µM (≈ 3.01 µg/mL) | MIC [7]: 4 µM (≈ 12 µg/mL) | MIC (Serratia marcescens): 4 µM (≈ 12 µg/mL) | MIC [8]: 8 µM (≈ 24.1 µg/mL) | MIC (Staphylococcus aureus): > 64 µM and 32 µM | MIC [9]: 2 µM (≈ 6.02 µg/mL) | MIC (Streptococcus agalactiae): 1.41 µM (≈ 4.26 µg/mL)
Structure (SMILES): CC[C@H](C)[C@H](NC(=O)[C@H](CCCCN)NC(=O)[C@H](CCCN=C(N)N)NC(=O)CNC(=O)[C@H](CC(C)C)NC(=O)[C@H](CO)NC(=O)[C@H](CCCN=C(N)N)NC(=O)[C@H](CC(C)C)NC(=O)CNC(=O)CN)C(=O)N[C@@H](CC(C)C)C(=O)N[C@@H](CCCN=C(N)N)C(=O)N[C@@H](C)C(=O)N[C@@H](Cc1c[nH]c2ccccc12)C(=O)N[C@@H](CCCCN)C(=O)N[C@@H](CCCCN)C(=O)N[C@@H](Cc1ccc(O)cc1)C(=O)NCC(=O)N1CCC[C@H]1C(=O)N[C@@H](CCC(N)=O)C(=O)N[C@@H](C)C(=O)N[C@H](C(=O)N1CCC[C@H]1C(=O)N[C@@H](C)C(=O)N[C@H](C(=O)N[C@@H](CCCN=C(N)N)C(=O)N[C@@H](CCC(N)=O)C(N)=O)[C@@H](C)O)[C@@H](C)O [GGLRSLGRKILRAWKKYGPQATPATRQ]

MIC (Bacillus subtilis C971): 0.692 µM (≈ 2.03 µg/mL) | MIC [15]: 0.692 µM (≈ 2.03 µg/mL) | MIC [16]: 4.39 µM (≈ 12.9 µg/mL) | MIC (Escherichia coli DC2): 0.865 µM (≈ 2.54 µg/mL) | MIC (Escherichia coli UB1005): 1.73 µM (≈ 5.07 µg/mL) | MIC [17]: 1.38 µM (≈ 4.06 µg/mL) | MIC [18]: 3.49 µM (≈ 10.2 µg/mL) | MIC [19]: 4.39 µM (≈ 12.9 µg/mL) | MIC [20]: 1.11 µM (≈ 3.25 µg/mL) | MIC [8]: 2.77 µM (≈ 8.11 µg/mL) | MIC [21]: 1.73 µM (≈ 5.07 µg/mL) | MIC [22]: 1.38 µM (≈ 4.06 µg/mL)
Structure (SMILES): CC[C@H](C)[C@H](NC(=O)[C@H](C)NC(=O)[C@H](CCCCN)NC(=O)[C@H](CC(C)C)NC(=O)[C@H](C)NC(=O)[C@@H](NC(=O)[C@H](Cc1cnc[nH]1)NC(=O)[C@H](CC(C)C)NC(=O)[C@@H](NC(=O)[C@@H](NC(=O)[C@H](CCCCN)NC(=O)[C@@H](NC(=O)[C@H](C)NC(=O)CNC(=O)[C@H](CCCCN)NC(=O)[C@H](Cc1ccccc1)NC(=O)[C@@H](NC(=O)[C@H](CCCCN)NC(=O)[C@H](CC(C)C)NC(=O)[C@H](Cc1ccccc1)NC(=O)[C@H](CO)NC(=O)[C@H](CCCCN)NC(=O)[C@H](Cc1c[nH]c2ccccc12)NC(=O)[C@H](CCCCN)NC(C)=O)[C@@H](C)O)C(C)C)[C@@H](C)O)C(C)C)[C@@H](C)O)C(=O)N[C@@H](CO)C(=O)N[C@@H](CO)C(N)=O [KWKSFLKTFKGAVKTVLHTALKAISS]

— DBAASP
